Data on ten compounds can be found in US8278312B2, “Imidazo 1,2-a pyrimidine derivatives for the treatment of diseases such as diabetes” (Merck Patent Gesellschaft mit Beschränkter Haftung, priority 2007, dated 2012).

For one test, the target named is T1, SGLT1 (Homo sapiens, UniProt P13866).
T1 construct: expressed in transfected cells
T1 sequence (P13866 1-664): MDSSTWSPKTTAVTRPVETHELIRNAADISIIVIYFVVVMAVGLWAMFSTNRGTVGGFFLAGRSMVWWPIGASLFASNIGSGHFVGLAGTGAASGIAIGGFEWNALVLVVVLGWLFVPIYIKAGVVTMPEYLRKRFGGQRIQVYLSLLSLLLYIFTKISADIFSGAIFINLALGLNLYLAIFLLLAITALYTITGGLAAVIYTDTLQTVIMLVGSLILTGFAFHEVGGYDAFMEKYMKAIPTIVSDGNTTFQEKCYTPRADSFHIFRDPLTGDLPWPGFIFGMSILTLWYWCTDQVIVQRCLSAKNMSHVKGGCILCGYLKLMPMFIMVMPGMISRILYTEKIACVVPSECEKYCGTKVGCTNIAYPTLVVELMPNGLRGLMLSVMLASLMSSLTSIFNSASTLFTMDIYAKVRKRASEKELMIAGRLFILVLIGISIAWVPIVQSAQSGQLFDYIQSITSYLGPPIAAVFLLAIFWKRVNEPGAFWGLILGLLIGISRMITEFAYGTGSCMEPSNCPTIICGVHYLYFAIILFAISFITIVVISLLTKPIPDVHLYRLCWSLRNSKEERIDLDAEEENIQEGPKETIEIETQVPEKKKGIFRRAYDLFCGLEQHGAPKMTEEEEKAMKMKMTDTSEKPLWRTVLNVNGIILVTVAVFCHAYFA
Nature of the test: 14C-AMG uptake in BHK cells transfected with SGLT1 (96-well cell-based assay). As to conditions: 50 μM AMG, 37° C., 90 min. The source says:
(§1) The compounds can be tested for their SGLT inhibition properties by means of BHK cells expressing SGLT1 and SGLT2. The production of the cells and the testing can be carried out as described below.
To construct the SGLT1 expression vector (KL225), the SLC5A1 gene (homologous to NM_000343) was amplified from a cDNA library using standard PCR technology and cloned over NheI/XhoI sites into the pcDNA3.1 expression vector (Invitrogen) containing neomycin as a selection marker. In this vector, transcription uses the enhancer/promoter of human cytomegalovirus.
(§2) The final vector KL225 together with an additional vector containing a dihydrofolate reductase gene as a selection marker was introduced into cells. Transfection into BHK21 cells (ATCC CCL-10), cultivated in DMEM medium (GIBCO/BRL), supplemented with 10% foetal calf serum (FCS) and 20 mM glutamine, was carried out using calcium phosphate transfections according to Graham, F. L. and van der Ebb, A. J. (1973), Virology 52: 456 with 5-20 μg of uncut plasmids for 10^7 cells. Stable transfectants were selected in medium containing 1 mg/ml of G418 (GIBCO/BRL) and 20-5000 nM methotrexate as final concentration, where only cells which expressed the neomycin gene and overexpressed the dhfr gene were able to grow. After growth for 2-3 weeks, the cells were cloned (0.5 cells/well) and the clones were investigated for SGLT expression in radioactivity uptake tests. […]
(§3) A 96-well cell-based assay was developed and adapted to HTS requirements:
(§4) BHK cells (transfected with SGLT1 or SGLT2) were seeded into 96-well microtitre plates (Cultureplates, Perkin Elmer). After at least 24 h, medium was removed, and the cell layer was washed with assay buffer (140 mM NaCl, 2 mM KCl, 1 mM CaCl2, 1 mM MgCl2, 10 mM HEPES, 5 mM Tris, adjusted to pH 7.4 using 1 M KOH). After addition of 40 μl of assay buffer, 50 μl of AMG (50 μM for SGLT1 and 2 mM for SGLT2) in the presence or absence of compounds, the cells were incubated in a total volume of 100 μl at 37° C. for 90 min. Supernatant was removed by suction and discarded. Cells were washed and lysed by addition of 50 μl of water. After 10 min at room temperature, 200 μl of Micrsoscint 40 (Perkin Elmer) were added. The radioactivity was counted in a Topcount microplate scintillation counter (Perkin Elmer). The non-specific uptake was determined in sodium-free assay buffer (266 mM sucrose, 2 mM KCl, 1 mM CaCl2, 1 mM MgCl2, 10 mM HEPES, 5 mM Tris, adjusted to pH 7.4 using 1 M KOH).

The next test deals with T2, SGLT2 (Homo sapiens, UniProt P31639).
T2 construct: expressed in transfected cells
T2 sequence (P31639 1-672): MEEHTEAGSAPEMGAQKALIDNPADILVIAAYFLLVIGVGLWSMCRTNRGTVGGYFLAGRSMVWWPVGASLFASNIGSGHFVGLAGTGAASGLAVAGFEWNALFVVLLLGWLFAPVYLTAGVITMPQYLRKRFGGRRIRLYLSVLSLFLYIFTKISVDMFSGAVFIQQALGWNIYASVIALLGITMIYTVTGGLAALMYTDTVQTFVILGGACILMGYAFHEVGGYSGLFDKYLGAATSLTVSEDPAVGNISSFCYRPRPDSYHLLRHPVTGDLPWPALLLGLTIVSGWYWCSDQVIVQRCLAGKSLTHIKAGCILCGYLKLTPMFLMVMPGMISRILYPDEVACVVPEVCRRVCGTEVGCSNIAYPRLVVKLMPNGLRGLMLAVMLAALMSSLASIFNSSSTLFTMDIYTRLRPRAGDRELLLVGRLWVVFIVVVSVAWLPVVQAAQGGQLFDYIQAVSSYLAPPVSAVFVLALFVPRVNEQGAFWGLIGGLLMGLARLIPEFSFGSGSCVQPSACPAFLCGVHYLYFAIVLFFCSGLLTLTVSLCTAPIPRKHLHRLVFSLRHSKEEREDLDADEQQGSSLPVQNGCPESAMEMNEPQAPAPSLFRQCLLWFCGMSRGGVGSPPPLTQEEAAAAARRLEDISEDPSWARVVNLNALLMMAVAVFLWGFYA
Nature of the test: 14C-AMG uptake in BHK cells transfected with SGLT2 (96-well cell-based assay). The following applies: 2 mM AMG, 37° C., 90 min.
Description: as §1
To construct the SGLT2 expression vector (KL224), the SLC5A2 gene (homologous to NM_003041) was amplified from a cDNA library using standard PCR technology and cloned over NheI/XhoI sites into PCI-neo expression vector (Promega) containing neomycin as a selection marker. In this vector, transcription uses the enhancer/promoter of human cytomegalovirus and the SV40 polyadenylation signal.
as §2, with “KL224” for “KL225”
as §3, §4

In general, IC50 refers to the concentration needed to halve the response being measured. With `CNc1nnc(-c2cccc(Cl)c2-c2nc3ncccn3c2Nc2c(C)cccc2C)o1` [Compound A19, {2-[2-Chloro-6-(5-methylamino-1,3,4-oxadiazol-2-yl)phenyl]imidazo[1,2-a]-pyrimidin-3-yl}-(2,6-dimethylphenyl)amine], the IC50 against SGLT1 is 1 to 10 µM; on SGLT2, 0.01 to 1 µM.
For `COC(=O)c1cccc(Cl)c1-c1nc2ncccn2c1Nc1c(C)cccc1C` [Compound A20, Methyl 3-chloro-2-[3-(2,6-dimethyl-phenylamino)imidazo[1,2-a]pyrimidin-2-yl)benzoate], the IC50 on SGLT1 is greater than 10 µM; against SGLT2, 0.01 to 1 µM.
On the same counts, the results for `CNc1nnc(-c2cc(OC)ccc2-c2nc3ncccn3c2Nc2c(C)cccc2C)o1` [Compound A21, (2,6-Dimethylphenyl)-{2-[4-methoxy-2-(5-methylamino-1,3,4-oxadiazol-2-yl)-phenyl]imidazo[1,2-a]pyrimidin-3-yl}-amine] are greater than 10 µM and 0.01 to 1 µM.
The corresponding values for `CNc1nnc(-c2cccc(Cl)c2-c2nc3ncccn3c2Nc2c(C)cccc2Cl)o1` [Compound A22, {2-[2-Chloro-6-(5-methylamino-1,3,4-oxadiazol-2-yl)phenyl]imidazo[1,2-a]-pyrimidin-3-yl}-(2-chloro-6-methylphenyl)-amine] are 0.01 to 1 µM and 0.01 to 1 µM.
As to `CNc1nnc(-c2cc(OC)cc(OC)c2-c2nc3ncccn3c2Nc2c(Cl)ccc(C)c2Cl)o1` [Compound A23, (2,6-Dichloro-3-methylphenyl)-{2-[2,4-dimethoxy-6-(5-methylamino-1,3,4-oxadiazol-2-yl)phenyl]imidazo[1,2-a]-pyrimidin-3-yl}amine], the IC50 on SGLT1 and at SGLT2 was 0.01 to 1 µM each time.
Take `CCNC(=O)c1cc(OC)cc(OC)c1-c1nc2ncccn2c1Nc1c(Cl)ccc(C)c1Cl` [Compound A24, 2-[3-(2,6-dichloro-3-methylphenylamino)imidazo[1,2-a]-pyrimidin-2-yl]-N-ethyl-3,5-dimethoxybenzamide]: the IC50 against SGLT1 and at SGLT2 was 0.01 to 1 µM each time.
For `CNc1nnc(-c2ccccc2-c2nc3ncccn3c2Nc2c(C)noc2C)o1` [Compound A25, (3,5-Dimethylisoxazol-4-yl)-{2-[2-(5-methylamino-1,3,4-oxadiazol-2-yl)-phenyl]imidazo[1,2-a]pyrimidin-3-yl}-amine], the IC50 at SGLT1 and against SGLT2 was greater than 10 µM in each case.
Regarding `CNc1nnc(-c2cccc(F)c2-c2nc3ncccn3c2Nc2c(C)cccc2Cl)o1` [Compound A26, (2-Chloro-6-methylphenyl)-{2-[2-fluoro-6-(5-methylamino-1,3,4-oxadiazol-2-yl)-phenyl]imidazo[1,2-a]pyrimidin-3-yl}-amine], the IC50 lay in the range of 1 to 10 µM against SGLT1 and 0.01 to 1 µM against SGLT2.
On the same counts, the results for `CNc1nnc(-c2cccc(F)c2-c2nc3ncccn3c2Nc2c(C)cc(F)cc2C)o1` [Compound A27, (4-Fluoro-2,6-dimethylphenyl)-{2-[2-fluoro-6-(5-methylamino-1,3,4-oxadiazol-2-yl)phenyl]imidazo[1,2-a]pyrimidin-3-yl}-amine] are 1 to 10 µM and 0.01 to 1 µM.
Turning to “(2,6-Dichlorophenyl)-{2-[2-(5-methyl-amino-1,3,4-oxadiazol-2-yl)phenyl]-imidazo[1,2-a]pyrimidin-3-yl}amine [Compound A14]”, the values for the IC50 against SGLT1 and on SGLT2 were 1 to 10 µM and 0.01 to 1 µM, respectively.
